Measurements as given in paper PMC4199632, “Exploring the Anti-Cancer Activity of Novel Thiosemicarbazones Generated through the Combination of Retro-Fragments: Dissection of Critical Structure-Activity Relationships” (PLoS ONE, 2014).

How the values were obtained:
[1] = Ascorbate oxidation assay (iron complexes); format: biochemical; conditions: iron complex; for Ascorbate oxidation (% of the control): FeIII 10 µM, ascorbate 100 µM
Procedure: The ability of the iron complexes of the novel ligands to mediate the oxidation of the physiological substrate, ascorbate, was examined using established methods, [18], [22], [52], [53]. Ascorbic acid (100 µM) was prepared immediately prior to each experiment and was incubated in the presence of Fe^III (10 µM; as FeCl3), the chelator (1–60 µM) and a 50-fold molar excess of citrate (500 µM). The absorbance at 265 nm was measured after 10 and 40 min and the difference in absorbance at these time points was calculated. The results of these experiments were expressed as iron-binding equivalents (IBE) due to the different denticity of the chelators examined. The chelators, Dp44mT, DFO and ethylenediaminetetraacetic acid (EDTA) were used as controls as the ability of their iron complexes to oxidize ascorbate has been extensively characterized, [15], [52], [53].
The ability of the iron complexes of the novel TSCs to catalyze the oxidation of the physiological substrate, ascorbate, was important to assess as redox cycling may play a critical role in their anti-proliferative activity, [15], [18], [52], [53]. Thus, the oxidation of ascorbate mediated by the iron complexes of series 1–6 were examined in comparison to the iron complexes of the control compounds, DFO, EDTA and Dp44mT, as the ability of the latter to oxidize ascorbate is well characterized, [15], [52], [53], [68]. The results were expressed as a percentage of the control (no chelator) at iron-binding equivalents (IBEs) of 0.1 (excess “free” iron), 1 (iron-chelator complexes with a fully filled coordination sphere), or 3 (excess free chelator), due to the different denticity of the chelators examined (Fig. 10).
Figure 10 Effect of the iron complexes of (A) series 1, (B) series 2, (C) series 3, (D) series 4, (E) series 5 and (F) series 6 chelators, relative to DFO, Dp44mT and EDTA, on ascorbate oxidation. Chelators at iron-binding equivalent (IBE) ratios of 0.1, 1, and 3 were incubated in the presence of Fe^III (10 µM) and ascorbate (100 µM). The UV-Vis absorbance at 265 nm was recorded after 10 and 40 min, and the difference between the time points was calculated. Results are mean ±SD (3 experiments).

[2] = test system: SK-N-MC cells; assay: Mobilization of cellular 59Fe (59Fe efflux); format: cell-based, human; conditions: chelator 25 µM; for 59Fe mobilization (% of cellular 59Fe released): 3 h/37°C, prelabeled SK-N-MC cells, control medium 4±1%; for 59Fe mobilization efficacy compared with controls: SK-N-MC cells
Procedure: The iron transport protein, Tf (Sigma-Aldrich), was labeled with ^59Fe (PerkinElmer Life and Analytical Sciences, Boston, MA) to form ^59Fe2-Tf using standard methods, [7]. Unbound ^59Fe was removed by passage through a Sephadex G25 column and was followed by exhaustive dialysis, [7].
To examine the ability of the novel chelators to mobilize ^59Fe from SK-N-MC cells, ^59Fe efflux experiments were performed using established techniques, [51]. The monolayer of SK-N-MC cells was prelabeled for 3 h at 37°C in MEM containing ^59Fe2-Tf (0.75 µM). Cells were then washed four times with ice-cold PBS and incubated for a further 3 h at 37°C with medium alone (the control) or medium containing the chelator (25 µM). After this incubation, the overlying medium that contained the released ^59Fe was separated from the cells using a Pasteur pipette. Radioactivity was measured in both the cells and supernatant using a γ-scintillation counter (Wallac Wizard 3, Turku, Finland). In these studies, the novel ligands were compared to the previously characterized chelators, DFO and Dp44mT, as their ability to mobilize cellular ^59Fe has been extensively examined in these cells, [12], [17], [18], [50].
Figure 6 Effect of (A) series 1, (B) series 2, (C) series 3, (D) series 4, (E) series 5 and (F) series 6 chelators, relative to the controls DFO and Dp44mT, on ^59Fe mobilization from prelabeled SK-N-MC cells. Cells were incubated for 3 h/37°C with ^59Fe-transferrin (0.75 µM), washed 4 times with ice-cold PBS and then reincubated for 3 h/37°C in the presence or absence of the chelators (25 µM). Release of ^59Fe was then assessed using a γ-scintillation counter. Results are mean ±SD (3 experiments).

SMILES: S=C(NN=C(c1ccccn1)c1ccccn1)N1CCN(c2cnccn2)CC1 [1e]
- Ascorbate oxidation (% of the control) ([1]; IBE 3): 200–265%
- 59Fe mobilization (% of cellular 59Fe released) [2]: 31–39%

SMILES: CCN1CCN(C(=S)N/N=C/c2ccc3ccccc3n2)CC1 [2a]
- Ascorbate oxidation (% of the control) ([1]; IBE 3): 200–265%
- 59Fe mobilization efficacy compared with controls [2]: comparable ^59Fe mobilization efficacy to that of the control medium

SMILES: S=C(N/N=C/c1ccc2ccccc2n1)N1CCN(c2ccccc2)CC1 [2b]
- 59Fe mobilization efficacy compared with controls [2]: comparable release of ^59Fe relative to DFO

SMILES: CN(C(=S)N/N=C/c1ccc2ccccc2n1)C1CCCCC1 [2f]
- 59Fe mobilization efficacy compared with controls [2]: comparable release of ^59Fe relative to DFO

SMILES: CN(C(=S)N/N=C/c1cnc2ccccc2n1)C1CCCCC1 [5f]
- Ascorbate oxidation compared with controls ([1]; IBE 3): decreased ascorbate oxidation relative to the control
- 59Fe mobilization efficacy compared with controls [2]: comparable release of ^59Fe relative to DFO

SMILES: CN(C(=S)N/N=C/c1ccccc1O)C1CCCCC1 [6f]
- Ascorbate oxidation compared with controls ([1]; IBE 3): decreased ascorbate oxidation relative to the control

SMILES: CC(=O)N(O)CCCCCNC(=O)CCC(=O)N(O)CCCCCNC(=O)CCC(=O)N(O)CCCCCN [DFO, desferrioxamine, reference compound]
- Ascorbate oxidation (% of the control) ([1]; IBE 1): 47%
- Ascorbate oxidation (% of the control) ([1]; IBE 3): 23%
- 59Fe mobilization (% of cellular 59Fe released) [2]: 11±2%

SMILES: CN(C)C(=S)NN=C(c1ccccn1)c1ccccn1 [Dp44mT, di-2-pyridylketone 4,4-dimethyl-3-thiosemicarbazone, reference compound]
- Ascorbate oxidation (% of the control) ([1]; IBE 0.1): 129%
- Ascorbate oxidation (% of the control) ([1]; IBE 1): 203%
- Ascorbate oxidation (% of the control) ([1]; IBE 3): 196%
- 59Fe mobilization (% of cellular 59Fe released) [2]: 35±2%
